This note sets out measurements from publication PMC9056950, “Synthesis and biochemical evaluation of cephalosporin analogues equipped with chemical tethers” (RSC Advances, 2020).

≈ marks a conversion by molar mass, not a printed value. Bounds are passed on as bounds.

The subject of experiment [1] is T1, S. aureus.
T1 construct: NCTC 6571
Also noted: species or system Staphylococcus aureus NCTC 6571; broth growth inhibition, OD600, fitted MIC from dose curve, TSB, 37 C. The settings on record: 16 h; inhibitor. As to the method: Stock solutions of each compound were prepared in 50% DMSO/water at ×100 the final concentration. In a 96-well plate, 2 μL of the test compounds were added to each well. Each plate included the positive control (750 μg mL^−1 chloramphenicol), the negative control (50% DMSO/water) and media only wells. To each test well was then added 198 μL of the required bacteria stock (OD 0.05). E. coli assays were carried out using LB broth, S. aureus were carried out using tryptic soy broth (TSB). Plates were incubated at 37 °C and the OD600 was measured (Epoch 2 Microplate Spectrophotometer, BioTek) every 30 min over a 17 h period. Tests were carried out in triplicate, the background absorbance was removed using reference wells, and the averages were determined. Dose curves were plotting using the OD600 after 16 h growth vs. compound concentration. MICs were defined as the minimum concentration of compound at which no significant growth was observed after 16 h incubation. MIC values were determined using GraphPad Prism (version 8.3.0). The activity of 1–12 was investigated with growth assays against Staphylococcus aureus (NCTC 6571). S. aureus is a virulent Gram-positive pathogen that can cause a wide range of infections in humans.[29,30] Each compound was tested at 400–6 μM concentrations, with lower concentrations tested as required.

The target of experiment [2] is T2, PBP3 (Escherichia coli, UniProt P0AD68).
T2 construct: gene ftsI
T2 sequence (P0AD68 44-588): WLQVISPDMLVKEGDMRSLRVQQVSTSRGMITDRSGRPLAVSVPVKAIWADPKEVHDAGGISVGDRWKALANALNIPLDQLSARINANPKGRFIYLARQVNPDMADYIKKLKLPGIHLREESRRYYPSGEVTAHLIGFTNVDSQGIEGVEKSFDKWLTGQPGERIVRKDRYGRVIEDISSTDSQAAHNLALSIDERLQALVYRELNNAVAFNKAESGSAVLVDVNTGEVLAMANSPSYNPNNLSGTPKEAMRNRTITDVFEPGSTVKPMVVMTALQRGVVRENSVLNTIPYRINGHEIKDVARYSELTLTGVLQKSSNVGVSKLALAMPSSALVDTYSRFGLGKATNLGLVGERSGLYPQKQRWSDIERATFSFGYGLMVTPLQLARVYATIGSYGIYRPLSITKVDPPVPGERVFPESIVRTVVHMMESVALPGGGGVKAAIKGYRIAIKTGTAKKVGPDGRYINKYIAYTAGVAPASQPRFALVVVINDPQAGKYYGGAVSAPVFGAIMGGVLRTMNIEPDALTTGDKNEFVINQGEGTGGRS
Kind of experiment: biochemical. Also noted: Thermal shift assay, Protein Thermal Shift dye, 3 uM E. coli PBP3, change in melting temperature. The settings on record: read-out: Average DTm/°C. Here is the method: The thermal shift assay was carried out using the Protein Thermal Shift™ assay kit (Applied Biosystems). 3 μM of purified E. coli PBP3 was incubated with the β-lactam analogues at 300 μM concentration in a mixture containing the Protein Thermal Shift™ Dye. The samples were then heated in a StepOnePlus™ Real-Time PCR System from 25 to 95 °C at a rate of 1 °C min^−1. Tests were carried out in triplicate and the averages plotted as the negative first derivative vs. temperature. Reference wells, i.e. solutions consisting only of only PBP3 with dye, PBP3 only, and dye only, were used as controls. Melting temperature (Tm) values were determined with and without each compound, and the change in melting temperature (ΔTm) was obtained, Fig. 2. The thermal shift assay with PBP4 was carried out using the protocol described for PBP3, with the follow deriviatisation: 500 nM of purified Bacillus subtilis PBP4 was incubated with 50 μM of the β-lactam analogues. A thermal shift assay was used to investigate the binding of the cephalexin analogues to the therapeutic target, PBP, in vitro. This assay provides a fast and inexpensive method of detecting a ligand binding to a protein of interest. Briefly, the protein is gradually heated in the presence of a fluorescent dye that binds non-specifically to the hydrophobic surfaces. […] A change in the melting temperature (Tm) when the protein is heated in the presence of a ligand, indicates a protein–ligand interaction. […] The PBPs can be divided into two main categories: high molecular mass (HMM) and low molecular mass (LMM).[13] PBP3 was chosen as a representative HMM PBP, and PBP4 as a representative LMM PBP. Cephalexin (1) has been previously reported to show good binding affinities for both PBP3 and PBP4.[14] Penicillin (11) and cefpodoxime (12) were included as positive controls. A truncated version of the ftsI gene formed of residues W44-S588, encoding only the soluble domain, was amplified from E. coli BW25113. The resulting construct was inserted into the vector pBADnLIC2005,[40] introducing an N-terminal deca-histidine tag when expressed. The resulting vector was transformed into E. coli MC1061 for expression. Cultures for protein expression were grown in 1 L of Luria–Bertani (LB) broth at 37 °C on an orbital shaker. Expression was induced by addition of 0.01% L-arabinose during mid-log phase of growth. Cultures were further incubated for 16 h at 20 °C, then the cells were harvested by centrifugation. Cell pellets were resuspended in 50 mM KPi pH 7.8, 200 mM NaCl, 10 mM imidazole, 20% glycerol with 1 mM [compound left out] followed by sonication. The lysate was clarified by centrifugation before loading onto a HisTrap HF column (GE Healthcare). To remove any pre-bound ligands, refolding purification was performed by initially washing with the protein unfolding buffer [2 M guanidine HCl, 50 mM KPi (pH 7.8), 200 mM NaCl, 20% glycerol, and 20 mM imidazole] and then performing a gradient wash to the protein refolding buffer [50 mM KPi (pH 7.8), 200 mM NaCl, 20% glycerol, and 20 mM imidazole] before the elution of the protein using the elution buffer [50 mM KPi (pH 7.8), 200 mM NaCl, 20% glycerol, and 500 mM imidazole]. The eluted protein was buffer-exchanged to the buffer 50 mM KPi (pH 7.8), 200 mM NaCl using a HisTrap Desalting (GE Healthcare) column.

Experiment [3] relates to T3, S. aureus (NCTC 6571).
T3 construct: NCTC 6571
The experiment in a line: microbe, parasite or virus in culture. More on the design: minimum bactericidal concentration 50 on agar plates. The settings on record: Staphylococcus aureus, NCTC6571; read-out: MBC50 S. aureus (NCTC 6571).

Experiment [4] deals with T2, PBP3. Kind of experiment: thermal shift (Protein Thermal Shift dye). Type of experiment: binding. The settings on record: 3 μM PBP3, 300 μM ligand, 25-95 °C at 1 °C/min; Tm increased.
The test system of experiment [5] is T4, E. coli (BW25113).
T4 construct: BW25113
Kind of experiment: microbe, parasite or virus in culture. More on the design: minimum bactericidal concentration 50 on agar plates. The settings on record: Escherichia coli, read-out: MBC50 E. coli (BW25113).

As to `CC1=C(C(=O)O)N2C(=O)[C@@H](NC(=O)[C@H](NC(=O)COCC(=O)NCCOCCOCCOCCOCCNC(=O)CCCCCN3C(=O)C=CC3=O)c3ccccc3)[C@H]2SC1` [compound 2, (6R,7R)-7-((R)-30-(2,5-Dioxo-2,5-dihydro-1H-pyrrol-1-yl)-4,8,25-trioxo-2-phenyl-6,12,15,18,21-pentaoxa-3,9,24-triazatriacontanamido)-3-methyl-8-oxo-5-thia-1-azabicyclo[4.2.0]oct-2-ene-2-carboxylic acid], in experiment [1], the “MIC (S. aureus, best-fit)” value worked out at 9.255e-05 M (≈ 81 µg/mL). In addition, the ΔTm at 300 µM in experiment [2] came to 4.72 °C. The MBC in experiment [3] is 200 µM (≈ 175 µg/mL); in experiment [5] it was over 400 µM. Also, the ΔTm entry in experiment [4] is recorded as “all of the analogues tested caused an increase in the Tm with PBP3”.
For `CC1=C(C(=O)O)N2C(=O)[C@@H](NC(=O)[C@H](NC(=O)CCCCN)c3ccccc3)[C@H]2SC1` [compound 10, (6R,7R)-7-[(2R)-2-(5-Aminopentanamido)-2-phenylacetamido]-3-methyl-8-oxo-5-thia-1-azabicyclo[4.2.0]oct-2-ene-2-carboxylic acid] the same measures were 5.135e-05 M (≈ 22.9 µg/mL), 2.81 °C, 50 µM (≈ 22.3 µg/mL), over 400 µM and “all of the analogues tested caused an increase in the Tm with PBP3”.
As for `CC1=C(C(=O)O)N2C(=O)[C@@H](NC(=O)[C@H](NC(=O)OC(C)(C)C)c3ccccc3)[C@H]2SC1` [compound 9, (6R,7R)-7-[(2R)-2-{[(Tert-butoxy)carbonyl]amino}-2-phenylacetamido]-3-methyl-8-oxo-5-thia-1-azabicyclo[4.2.0]oct-2-ene-2-carboxylic acid], the “MIC (S. aureus, best-fit)” value in experiment [1] was determined as 1.097e-05 M (≈ 4.91 µg/mL). Also, the ΔTm at 300 µM in experiment [2] worked out at 1.61 °C. For the same molecule, the MBC in experiment [3] was 50 µM (≈ 22.4 µg/mL); in experiment [5] it was over 400 µM. In addition, the ΔTm entry in experiment [4] is “all of the analogues tested caused an increase in the Tm with PBP3”.
Regarding `CC1=C(C(=O)O)N2C(=O)[C@@H](NC(=O)[C@H](N)c3ccccc3)[C@H]2SC1` [compound 1, cephalexin], the “MIC (S. aureus, best-fit)” value in experiment [1] was 1.89e-05 M (≈ 6.57 µg/mL). Also, the ΔTm at 300 µM in experiment [2] turned out to be 1.61 °C. For the same molecule, the MBC was 400 µM (≈ 139 µg/mL) in experiment [3] and over 400 µM in experiment [5].
In the case of `CC(=O)N[C@@H](C(=O)N[C@@H]1C(=O)N2C(C(=O)O)=C(C)CS[C@H]12)c1ccccc1` [compound 8, (6R,7R)-7-[(2R)-2-Acetamido-2-phenylacetamido]-3-methyl-8-oxo-5-thia-1-azabicyclo[4.2.0]oct-2-ene-2-carboxylic acid], the “MIC (S. aureus, best-fit)” value in experiment [1] is listed as ~ 5.897e-005 M. For the same molecule, in experiment [2], the ΔTm at 300 µM came out at 3.01 °C. The figures for the MBC in experiment [3] and in experiment [5] were 200 µM (≈ 77.9 µg/mL) and over 400 µM, respectively. In addition, the ΔTm entry in experiment [4] is recorded as “all of the analogues tested caused an increase in the Tm with PBP3”.
For `CC1=C(C(=O)O)N2C(=O)[C@@H](NC(=O)[C@H](NC(=O)CCCCCN3C(=O)C=CC3=O)c3ccccc3)[C@H]2SC1` [compound 3, (6R,7R)-7-((R)-2-(6-(2,5-dioxo-2,5-dihyrdo-1H-pyrrol-1-yl)hexanamido)-2-phenylacetamido)-3-methyl-8-oxo-5-thia-1-azabicyclo[4.2.0]oct-2-ene-2-carboxylic acid] the same measures were ~ 5.580e-005 M, 3 °C, 200 µM (≈ 108 µg/mL), over 400 µM and “all of the analogues tested caused an increase in the Tm with PBP3”.
For `C#CCCC(=O)N[C@@H](C(=O)N[C@@H]1C(=O)N2C(C(=O)O)=C(C)CS[C@H]12)c1ccccc1` [compound 4, (6R,7R)-3-Methyl-8-oxo-7-[(2R)-2-(pent-4-ynamido)-2-phenylacetamido]-5-thia-1-azabicyclo[4.2.0]oct-2-ene-2-carboxylic acid] the same measures were ~ 3.501e-005 M, 3.01 °C, 50 µM (≈ 21.4 µg/mL), over 400 µM and “all of the analogues tested caused an increase in the Tm with PBP3”.
For `CC1=C(C(=O)O)N2C(=O)[C@@H](NC(=O)[C@H](NC(=O)CCCC(=O)ON3C(=O)CCC3=O)c3ccccc3)[C@H]2SC1` [compound 6, (6R,7R)-7-[(2R)-2-{5-[(2,5-Dioxopyrrolidin-1-yl)oxy]-5-oxopentanamido}-2-phenylacetamido]-3-methyl-8-oxo-5-thia-1-azabicyclo[4.2.0]oct-2-ene-2-carboxylic acid] the same measures were 8.29e-05 M (≈ 46.3 µg/mL), 3.21 °C, 200 µM (≈ 112 µg/mL), over 400 µM and “all of the analogues tested caused an increase in the Tm with PBP3”.
For `COCC1=C(C(=O)O)N2C(=O)[C@@H](NC(=O)/C(=N\OC)c3csc(N)n3)[C@H]2SC1` [compound 12, cefpodoxime], the “MIC (S. aureus, best-fit)” value in experiment [1] turned out to be 2.094e-05 M (≈ 8.95 µg/mL). Also, in experiment [2], the ΔTm at 300 µM was 4.42 °C. For the same molecule, the MBC in experiment [3] and in experiment [5] was 100 µM (≈ 42.7 µg/mL) throughout.
Take `CC1=C(C(=O)O)N2C(=O)[C@@H](NC(=O)[C@H](NC(=O)CCCCC3CCSS3)c3ccccc3)[C@H]2SC1` (stereo partly drawn) [compound 5, (6R,7R)-7-[(2R)-2-[5-(1,2-Dithiolan-3-yl)pentanamido]-2-phenylacetamido]-3-methyl-8-oxo-5-thia-1-azabicyclo[4.2.0]oct-2-ene-2-carboxylic acid]: the “MIC (S. aureus, best-fit)” value in experiment [1] was 2.493e-05 M (≈ 13.4 µg/mL). Moreover, in experiment [2], the ΔTm at 300 µM is 3.01 °C. Moreover, the figures for the MBC in experiment [3] and in experiment [5] were 50 µM (≈ 26.8 µg/mL) and over 400 µM, respectively. Besides, the ΔTm entry in experiment [4] was “all of the analogues tested caused an increase in the Tm with PBP3”.
